# From patent US20250115578A1, “AROMATIC FUSED RING NAV1.8 INHIBITOR, AND USE THEREOF” (CHENGDU KANGHONG PHARMACEUTICAL CO., LTD., priority 2022, published 2025)
# Like-named read-outs stand apart in the source and are kept apart here.
# Key:
# [1] = system: postoperative pain model in rats; test: Efficacy test in postoperative pain model in rats (mechanical allodynia, PWT); format: in vivo, Sprague-Dawley male rats; details: single oral 30 mg/kg, at 2 h and 4 h after administration
# Procedure: Sprague-Dawley male rats, purchased from Zhejiang Vital River Laboratory Animal Technology Co., LTD
# Compounds of the example 10, 14, 16, 31 of the invention were weighted and prepared into solutions of 3 mg/mL using 5% DMSO (Anhui Senrise Technologies Co., Ltd)+30% Solutol HS15 (Beijing Ouhe Technology Co., LTD.)+65% water for injection, and administered at a volume of 10 mL/kg by gavage. The dosage was 30 mg/kg.
# Animals were anesthetized with Zoletil 50+ Xylazine Hydrochloride (20 mg/kg+8 mg/kg, intraperitoneally injected). The surgical area on the plantar skin of the left hind paw was disinfected three times with iodophor and 70% ethanol, and the surgery was started after the skin was dry.
# A longitudinal incision about 1 cm was made towards the toes starting from 0.5 cm away from the heel of the left hind paw. After the skin was incised, the flexor digitorum brevis was raised and longitudinal blunt injury was caused. After hemostasis by pressing, the wound was sutured. After surgery, animals were placed on an electric warm pad and 5 mL of physiological saline was injected subcutaneously to prevent dehydration. 24 h after modeling, all animals (including the normal control group) were tested for base mechanical allodynia (PWT). The modeling animals without mechanical hypersensitivity (PWT greater than 5 g) were excluded and […] were selected and randomly divided into 5 groups, with 9 animals in each group except 5 in the normal group (negative control group).
# The animals were weighed and administered orally at a volume of 10 mL/kg. Except normal control animals, other animals were given a single dose of compounds, and mechanical allodynia was performed by test fibers on all groups of animals at 1 h, 2 h and 4 h after dosing. The rats were placed individually in a plexiglass box with a grid at the bottom to ensure that the paws of the rats could be tested. The rats would acclimate for 15 minutes before the test. After the acclimation was completed, the test fibers were used to test on the plantar center of the rat's left hind paw. Pressed the test fiber vertically against the skin and applied force to bend the fiber for 6 to 8 seconds, with 5 second intervals between each test. The rapid withdrawal of the animal's paws during the test was recorded as a pain response. The animal's paw withdrawal when the fibers left the animal's skin was also recorded as a pain response. If the animal moves or walks around, it's not recorded as a pain response, and the test should be repeated.
# Mechanical hyperalgesia was expressed as the paw withdrawal threshold (PWT) in the rat behavioral test, which was calculated according to the following formula:
# 50% response threshold (g)=(10^(Xf+kδ)/10,000 • Xf=final test fiber value used in the test • k=table value (Chaplan et al. 1994, page 62) • δ=mean deviation
# Data were collected with excel software and analyzed with Prism 7.0 (Graph pad software, Inc.) software by two-way ANOVA followed by Dunnett multiple comparison test.
# hNav1.8 = hNav1.8 (Homo sapiens (Human), UniProt Q9Y5Y9); test: Manual patch clamp, Method 1 (CHO cell line stably expressing hNav1.8); format: cell-based; details: 100 nM; Method 1, CHO-hNav1.8; read-out: Inhibition rate of hNav1.8
# Source text: The patch clamp technique is known as the “gold standard” for studying ion channels, and it uses glass microelectrodes to seal the cell membrane to measure the currents of various membrane channel. […] Patch clamp technology can evaluate the inhibition strength of different compounds on different states of Navs by measuring the changes of membrane channel currents after different compounds bind to different states of Navs.
# The representative compounds of the present invention used stable CHO or HEK293 cell lines transfected with specific ion channels to measure the effect of the compounds on Nav1.8 currents by manual patch clamp test, to evaluate their inhibition strength.
# The assay protocol of manual patch clamp is as follows:
# CHO cell lines with stable expression of hNav1.8 were cultured in F12 medium containing 10% fetal bovine serum at a constant temperature of 37° C., and the carbon dioxide concentration was maintained at 5%. The old culture medium was removed and washed once with PBS, then 1 mL 0.25%-Trypsin-EDTA solution was added and incubated at 37° C. for 1 min. When the cells were detached from the bottom of the dish, 5 mL of the complete medium preheated at 37° C. was added, and the aggregated cells were separated by gently blowing with a straw. The cell suspension was transferred into a sterile centrifuge tube and centrifuged at 1000 rpm for 5 min to collect cells. The cells were then inoculated into a cell culture dish with a diameter of 6 cm (2.5×10^5 cells/petri dish, 5 mL medium) for expansion or maintenance.
# In order to maintain the electrophysiological activity of the cells, the cell density must be less than 80%.
# The cells were separated with 0.25%-Trypsin-EDTA before the assay, and 5×10^3 cells were seeded on a cover slip and cultured in a 24-well plate (final volume: 500 μL) for 18 h. Then the assay was conducted.
# The compounds prepared in the examples of the present invention were dissolved in dimethyl sulfoxide (DMSO) and prepared into DMSO stock solution with a concentration of 10 mM for assay. And it was diluted to various concentrations with extracellular solution (140 mM NaCl, 3.5 mM KCl, 1 mM MgCl2, 2 mM CaCl2), 10 mM Glucose, 10 mM HEPES, 1.25 mM NaH2PO4, pH=7.4 regulated by NaOH), and the final concentration of DMSO in each compound sample was 0.10% or less.
# A capillary glass pipette (BF150-86-10, Sutter Instruments) was pulled into a recording electrode with a micropipette puller (P97, Sutter Instruments). The micromanipulator (MP285, Sutter Instruments) was manipulated under an inverted microscope (IX71, Olympus) to make the recording electrode contact the cell and negative pressure suction was applied to achieve a GQ seal. Then, rapid capacitance compensation was performed, and negative pressure was continued, cell membrane was broken by suction, and whole cell recording mode was formed. Then the slow capacitance was compensated and the membrane capacitance and series resistance were recorded without leakage compensation. When the whole cell recording current was stabilized, dosing was initiated, and the next concentration was detected after acting 5 minutes of each drug concentration. Multiple cells were independently repeated during the recording period. All electrophysiological assays were performed at room temperature. Specifically, 6 concentrations (measuring IC50) or 2 concentrations (preliminary screening) were set for each compound, and the percentage of inhibition of sodium channels was determined by calculating the relative percentage of peak current generated before and after each concentration compound treated cells, and the IC50 value or percentage of inhibition at a specific concentration was calculated using IGOR pro software.
# [2] = Assay of kinetic solubility; format: physicochemical; details: aqueous buffer, kinetic from dmso stock, pH 3.5 phosphate buffer, 25° C.
# Procedure: The stock solutions of the test compound and the standard progesterone were prepared in DMSO at the concentration of 10 mM.
# 30 μL of stock solutions at 10 mM of the test compounds and standard substance were placed in order into their proper 96-well plate. 970 μL phosphate buffer at the specified pH was added to the proper vial of the sample plate. The assay was performed in duplicate. A stirring stick was added to each vial and the teflon/silicone plug was capped. The sample tray was then placed in the Eppendorf Thermomixer Comfort and shaken at 1100 RPM at 25° C. for 2 hours. After 2 hours, plugs were removed, a big magnet was used to remove the stirring sticks, and samples were transferred from the sample plate to the filter plate. Vacuum pump was used to create negative pressure and filtered the samples. Transferred 5 μL of the filtrate to the new sample plate, then added 5 μL DMSO and 490 μL water/acetonitrile (V/V=1/1) to dilute the solvent. The dilution factor may be adjusted according to the solubility values of the substances to be tested or the strength of its LC-MS signal response.
# From the 10 mM DMSO stock solution, 15 μL of that was transferred into the empty plate and 485 μL DMSO was added to prepare a 300 μM standard solution. From the 300 μM standard solution plate, 5 μL of that was transferred to another empty plate and 5 μL phosphate buffer at specified pH and 490 μL water/acetonitrile (V/V=1/1) dilution solvent were added to the standard solution to get a final concentration of 3 μM. The concentration of the standard solution may be adjusted according to the strength of its LC-MS signal response.
# The sample plate was placed into the sample tray of the automatic sampler and the samples were evaluated by LC-MS/MS analysis.
# All calculations were carried out by Microsoft Excel.
# The sample filtrate was analyzed and quantified against a standard of known concentrations using LC-MS spectral peaks to identify and quantify. The solubility values of the control drug and the compounds to be tested were calculated as the following formula: • [Sample]: concentration of the sample • AREASample: peak area of the sample • INJ VOLStd: standard sample injection volume • DFSample: sample dilution factor • [STD]: standard substance concentration • AREAStd: peak area of standard substance • INJ VOLSample: sample injection volume
# animal models of pain = details: carrageenan, CFA, CCI, SNL and acute mechanical pain models; cited from earlier work
# [3] = system: STZ-induced diabetic neuropathic heat pain model; details: cited from earlier work
# CFA and SNL models = details: cited from earlier work
# postoperative toothache = details: phase II; cited from earlier work
# Chain of hNav1.8 (Q9Y5Y9 whole entry): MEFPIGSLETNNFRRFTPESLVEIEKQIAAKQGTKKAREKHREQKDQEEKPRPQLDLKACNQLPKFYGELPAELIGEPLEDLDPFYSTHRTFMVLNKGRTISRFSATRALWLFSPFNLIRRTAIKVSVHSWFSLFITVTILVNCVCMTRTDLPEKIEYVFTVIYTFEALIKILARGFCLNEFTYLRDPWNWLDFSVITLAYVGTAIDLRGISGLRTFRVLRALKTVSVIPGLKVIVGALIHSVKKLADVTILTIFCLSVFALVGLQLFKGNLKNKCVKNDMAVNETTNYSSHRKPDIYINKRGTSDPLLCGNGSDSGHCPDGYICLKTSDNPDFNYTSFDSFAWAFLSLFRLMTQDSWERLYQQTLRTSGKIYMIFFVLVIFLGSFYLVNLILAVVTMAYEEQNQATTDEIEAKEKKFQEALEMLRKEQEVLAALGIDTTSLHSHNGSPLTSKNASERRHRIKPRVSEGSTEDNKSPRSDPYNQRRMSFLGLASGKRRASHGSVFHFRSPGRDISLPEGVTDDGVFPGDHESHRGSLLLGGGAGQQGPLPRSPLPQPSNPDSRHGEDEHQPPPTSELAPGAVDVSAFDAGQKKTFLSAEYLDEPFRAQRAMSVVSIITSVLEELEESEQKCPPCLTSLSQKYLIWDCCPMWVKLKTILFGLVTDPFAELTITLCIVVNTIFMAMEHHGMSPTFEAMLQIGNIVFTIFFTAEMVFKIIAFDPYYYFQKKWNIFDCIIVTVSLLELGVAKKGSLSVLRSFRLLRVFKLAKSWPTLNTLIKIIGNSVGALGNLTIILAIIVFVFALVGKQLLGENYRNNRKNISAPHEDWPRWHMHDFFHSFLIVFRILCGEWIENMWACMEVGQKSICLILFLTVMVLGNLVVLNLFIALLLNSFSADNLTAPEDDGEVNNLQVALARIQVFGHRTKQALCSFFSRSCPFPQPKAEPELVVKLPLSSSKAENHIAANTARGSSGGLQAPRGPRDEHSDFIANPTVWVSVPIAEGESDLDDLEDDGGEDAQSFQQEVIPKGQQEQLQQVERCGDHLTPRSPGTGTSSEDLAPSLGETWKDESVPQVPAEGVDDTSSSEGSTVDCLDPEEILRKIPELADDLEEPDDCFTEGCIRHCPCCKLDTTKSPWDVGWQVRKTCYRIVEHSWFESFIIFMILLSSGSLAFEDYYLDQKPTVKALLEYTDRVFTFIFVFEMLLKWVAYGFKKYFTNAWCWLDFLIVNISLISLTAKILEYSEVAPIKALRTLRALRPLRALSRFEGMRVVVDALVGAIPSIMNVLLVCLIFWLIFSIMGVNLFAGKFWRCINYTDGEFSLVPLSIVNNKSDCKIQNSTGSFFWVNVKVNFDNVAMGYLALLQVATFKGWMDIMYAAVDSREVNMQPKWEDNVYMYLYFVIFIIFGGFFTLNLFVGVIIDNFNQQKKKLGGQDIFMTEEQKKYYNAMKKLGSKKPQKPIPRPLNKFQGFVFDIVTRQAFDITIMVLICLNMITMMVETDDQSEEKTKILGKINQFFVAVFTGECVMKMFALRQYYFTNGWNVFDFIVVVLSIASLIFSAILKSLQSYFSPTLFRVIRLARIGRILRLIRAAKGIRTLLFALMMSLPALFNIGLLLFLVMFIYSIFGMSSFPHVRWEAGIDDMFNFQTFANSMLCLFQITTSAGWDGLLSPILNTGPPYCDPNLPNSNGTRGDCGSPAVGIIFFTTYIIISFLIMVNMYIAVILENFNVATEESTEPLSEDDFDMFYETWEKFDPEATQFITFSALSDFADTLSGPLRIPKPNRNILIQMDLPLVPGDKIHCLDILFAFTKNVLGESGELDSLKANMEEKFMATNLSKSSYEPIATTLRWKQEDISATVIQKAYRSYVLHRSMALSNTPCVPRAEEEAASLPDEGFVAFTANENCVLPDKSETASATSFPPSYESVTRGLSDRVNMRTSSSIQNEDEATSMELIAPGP
smiles,measurement,setting,value
"NS(=O)(=O)c1cc(NC(=O)c2cc(Cl)c(C(F)(F)F)cc2N2CCCC(F)(F)CC2)ccn1 [Example 31, 5-chloro-2-(4,4-difluoroazepan-1-yl)-N-(2-sulfamoylpyridin-4-yl)-4-trifluoromethylbenzamide, reference compound]",Inhibition of mechanical hyperalgesia induced by postoperative pain model,[1],inhibited mechanical hyperalgesia
same,inhibition at 0.1 µM,hNav1.8,97.1%
same,solubility kinetic at 2 h,[2],0.69 µM
COc1cc(NC(=O)c2ccc(-c3ccc(Cl)cc3)o2)cc(OC)c1 [Example A-803467],Pain relief effect compared with the model group,animal models of pain,exceeding 50%
same,Duration of efficacy versus lidocaine,[3]; local injection of plantar,lasted longer
same,Efficacy versus lidocaine,[3]; local injection of plantar,equivalent
same,Efficacy versus lidocaine,[3]; systemic administration,superior to lidocaine
CNC(=O)c1ccc(-c2cc(Cl)cc(Cl)c2Cl)c(N)n1 [PF-01247324],Pain relief,CFA and SNL models,significant pain relief
COc1ccc(Cl)c(-c2ccc(NC(=O)c3ccnn3C)nc2N)c1 [PF-04531083],Activity versus placebo,postoperative toothache,did not show better activity than placebo
